This experiment addresses T1, TRPC4 (Homo sapiens, UniProt Q9UBN4).
T1 construct: expressed in transfected cells
T1 sequence (Q9UBN4 1-982 isoform Q9UBN4-5): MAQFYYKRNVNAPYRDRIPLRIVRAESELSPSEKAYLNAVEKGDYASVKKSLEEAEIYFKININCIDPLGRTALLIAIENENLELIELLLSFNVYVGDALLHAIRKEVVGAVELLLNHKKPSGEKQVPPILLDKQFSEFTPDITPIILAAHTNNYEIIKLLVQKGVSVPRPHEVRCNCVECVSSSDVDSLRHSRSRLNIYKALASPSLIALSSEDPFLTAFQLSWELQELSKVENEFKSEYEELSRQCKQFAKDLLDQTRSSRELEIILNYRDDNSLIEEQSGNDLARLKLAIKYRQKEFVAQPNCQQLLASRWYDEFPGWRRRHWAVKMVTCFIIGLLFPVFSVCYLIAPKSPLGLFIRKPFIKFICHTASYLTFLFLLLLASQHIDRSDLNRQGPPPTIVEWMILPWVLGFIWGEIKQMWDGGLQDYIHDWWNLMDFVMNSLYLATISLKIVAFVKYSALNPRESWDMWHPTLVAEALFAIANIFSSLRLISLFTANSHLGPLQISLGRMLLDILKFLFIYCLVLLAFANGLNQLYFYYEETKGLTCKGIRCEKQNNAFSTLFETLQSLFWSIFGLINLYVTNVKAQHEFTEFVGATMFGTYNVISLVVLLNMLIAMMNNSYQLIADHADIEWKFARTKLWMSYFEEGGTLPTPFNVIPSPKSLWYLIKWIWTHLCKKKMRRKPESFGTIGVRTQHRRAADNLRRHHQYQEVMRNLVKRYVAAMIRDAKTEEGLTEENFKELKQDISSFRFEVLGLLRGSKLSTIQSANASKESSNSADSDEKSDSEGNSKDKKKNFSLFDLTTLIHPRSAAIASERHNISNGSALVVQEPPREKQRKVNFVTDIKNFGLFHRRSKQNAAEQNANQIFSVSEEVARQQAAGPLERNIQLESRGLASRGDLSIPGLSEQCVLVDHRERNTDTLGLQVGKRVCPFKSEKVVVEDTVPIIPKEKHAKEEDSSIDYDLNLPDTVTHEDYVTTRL
Put plainly: TRPC4 activity assay (FLIPR calcium fluorescence, HEK-TREx hTRPC4 cells). The class given is cell-based. The protocol:
ICLN-1694 cells (HEK-TREx hTRPC4) expressing TRPC4 were generated as follows. Commercially available HekTrex-293 cells were seeded at 0.7×10^6 cells/well in a 1×6-well plate 24 hrs prior to transfection using 2 mL cell growth media containing no antibiotics (lx DMEM/high glucose (Hyclone #SH30022.02); 10% fetal bovine serum (Sigma) 2 mM sodium pyruvate, 10 mM HEPES). […] On day 2, 2 μg of plasmid DNA plus 6 μl of Xtreme-GENE HP reagent in Optimem (200 μl total volume) was prepared and incubated for 15 min at room temperature. This plasmid solution was then gently overlayed dropwise onto each well and the plate was gently swirled to mix complex with the media for approximately 30 seconds. Transfected cells were incubated at 37° C. in a 10% CO2 incubator for 24 hrs. The transfected cells were harvested and transferred into 2×150 mm dishes containing cell growth media with no antibiotics at 37° C.
The next day selection was initiated to generate a stable pool by adding cell growth media containing 150 μg/mL Hygromycin and 5 μg/mL Blasticidin and cells were allowed to grow. Media with the selection agent was changed every 1-2 days as needed to remove dead cells. After 7 days, the hygromycin concentration was reduced to 75 μg/mL and cells growth was allowed to continue.
Single clones were selected as follows. The stable pool was diluted to 10 cells/mL and seeded (100 μl/well) into 24×96 well plates (˜1 cell/well) and allowed to grow for 7 days in cell growth media. Fresh media (100 μl) was added and the cells allowed to grow for another 1-2 weeks and then stored frozen or used immediately.
10-point dose response curves were generated using the Echo-550 acoustic dispenser. Compound source plates were made by serially diluting compound stocks to create 10 mM, 1 mM, and 0.1 mM solutions in DMSO into Echo-certified LDV plates. The Echo then serially spotted 100% DMSO stock solutions into source dose response plates to generate a 4-fold dilution scheme. 100% DMSO was added to the spotted dose response plates to bring the final volume to 5 μl. 300 nl of the dose response stock plate was then spotted into pre-incubation and stimulation assay plates. 50 μl of pre-incubation buffer and 100 μl of stimulation buffer was then added to the plates resulting in a final assay test concentration range of 30 μM to 0.0001 μM with a final DMSO concentration of 0.3%.
ICLN-1694 cells (HEK-TREx hTRPC4) were plated onto 384 well, black pdl-coated microplates and maintained in cell growth media supplemented with 1 μg/mL tetracycline the day prior to use for experiments. TRPC4 expression was induced by the application of 1 μg/mL tetracycline at the time of plating. […] Cells were incubated at room temperature, protected from light, for 60-90 minutes. After the incubation period, the dye was removed and replaced with 10 μl of EBSS. Cell, pre-incubation and stimulation plates were loaded onto the FLIPR-II and the assay was initiated. The FLIPR measured a 10 second baseline and then added 10 μl of 2× compounds (or controls). Changes in fluorescence were monitored for an additional 5 minutes. After a 5 minute pre-incubation, 20 μl of 2× Englerin A (with 1× compound or controls) was added to the cell plate. The final Engerlin A stimulation concentration in the assay was 100 nM. After the Englerin A addition, changes in fluorescence were monitored for an additional 5 minutes.
Compound modulation of TRPC4 calcium response was determined as follows. After the Englerin A, fluorescence was monitored for a 5-minute period. The maximum relative fluorescence response (minus the control response of 1 μM of an internal control compound known to maximally block TRPC4 calcium response, the “REF INHIB” in the formula below) was captured and exported from the FLIPR.
Compound effect is calculated as % inhibition using the following formula: […]
wherein “RFU” is the relative fluorescent units.

Where [1] appears, read: Table 6, HEK-TREx hTRPC4, read-out: hTRPC4-FLIPR IC50.
Where [2] appears, read: Table 5, HEK-TREx hTRPC4, read-out: TRPC4 FLIPR IC50.
Where [3] appears, read: Table 7, HEK-TREx hTRPC4, read-out: TRPC4-FLIPR IC50.

Like-named read-outs stand apart in the source and are kept apart here.

As a reminder, the IC50 is the point on the concentration scale where inhibition reaches its midpoint.

For `CC(c1ccc(F)cc1C(F)(F)F)N1CCN(c2cn[nH]c(=O)c2Cl)CC1=O` (single isomer, unassigned) [MF], the IC50 under setting [1] is 0.01 to 1000 nM.
`O=C1CN(c2cn[nH]c(=O)c2Cl)CCN1Cc1ccccc1C(F)(F)F` [AO]: under setting [2], the IC50 fell in the range of 0.01 to 1000 nM.
Consider `CCc1ncccc1N(CC)C1CCN(c2cn[nH]c(=O)c2Cl)CC1` [LW, 4-chloro-5-[4-[ethyl(2-ethylpyridin-3-yl)amino]piperidin-1-yl]-2,3-dihydropyridazin-3-one], for which the IC50 is, setting by setting: under setting [2], 0.01 to 1000 nM; under setting [1], 0.01 to 1000 nM.
As for `CCc1ncccc1[C@H](C)N1CCN(c2cn[nH]c(=O)c2Cl)CC1` [LY, 4-chloro-5-[4-[(1S)-1-(2-ethylpyridin-3-yl)ethyl]piperazin-1-yl]-2,3-dihydropyridazin-3-one], the IC50 is 0.01 to 1000 nM under setting [2] and 0.01 to 1000 nM under setting [1].
On to `C[C@@H]1Cc2c(nnn2[C@H](C)c2ccccc2C(F)(F)F)CN1c1cn[nH]c(=O)c1Cl` [MX, 4-chloro-5-[(6R)-6-methyl-1-[(1R)-1-[2-(trifluoromethyl)phenyl]ethyl]-1H,4H,5H,6H,7H-[1,2,3]triazolo[4,5-c]pyridin-5-yl]-2,3-dihydropyridazin-3-one], for which the IC50 lay in the range of 0.01 to 1000 nM under setting [2] and 0.01 to 1000 nM under setting [3].
Take `CN1CCN(C(=O)c2nn(Cc3ccccc3C(F)F)c3c2CN(c2cn[nH]c(=O)c2Cl)CC3)CC1` [OM]: the IC50 under setting [3] was 0.01 to 1000 nM.
For the compound `NC(=O)c1nn(Cc2ccccc2C(F)(F)F)c2c1CN(c1cn[nH]c(=O)c1Cl)CC2` [OP, 5-(5-Chloro-6-oxo-1,6-dihydropyridazin-4-yl)-1-[[2-(trifluoromethyl)phenyl]methyl]-1H,4H,5H,6H,7H-pyrazolo[4,3-c]pyridine-3-carboxamide], the IC50 runs as follows: under setting [2], 0.01 to 1000 nM; under setting [3], 0.01 to 1000 nM.
For `CN1CCN(Cc2nn(Cc3ccccc3C(F)F)c3c2CN(c2cn[nH]c(=O)c2Cl)CC3)CC1` [OU, 4-Chloro-5-(1-[[2-(difluoromethyl)phenyl]methyl]-3-[(4-methylpiperazin-1-yl)methyl]-1H,4H,5H,6H,7H-pyrazolo[4,3-c]pyridin-5-yl)-2,3-dihydropyridazin-3-one], the concentration for half-maximal inhibition (IC50) under setting [3] was in the range of 0.01 to 1000 nM.
Consider `CN(C)C(=O)c1nc2c(n1Cc1ccccc1C(F)(F)F)CCN(c1cn[nH]c(=O)c1Cl)C2` [PW], for which the IC50 was 0.01 to 1000 nM under setting [2] and 0.01 to 1000 nM under setting [3].
`CN(c1ncc2c(n1)CN(c1cn[nH]c(=O)c1Cl)C2)c1ccccc1C(F)(F)F` [QM]: the IC50 runs as follows: under setting [2], 0.01 to 1000 nM; under setting [3], 0.01 to 1000 nM.

These data come from patent US20220152031A1, “PYRIDAZINONES AND METHODS OF USE THEREOF” (Goldfinch Bio, Inc., priority 2019, published 2022).
